According to PubChem BioAssay (NCI):
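Interpolation was linear, between the two tested concentrations surrounding the appropriate level; five concentrations were tested over 48 hours in 96-well plates. Abbreviation: GI50, concentration required for 50% inhibition of growth. Definition used: TGI = concentration required for complete inhibition of growth.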

How the values were obtained:
Assay in all cases: NCI tumour cell line growth inhibition, 48 h
COLO 205 colon = test system: COLO 205 colon
UACC-62 melanoma = test system: UACC-62 melanoma
BT-549 breast = test system: BT-549 breast
ACHN renal = test system: ACHN renal
SF-295 CNS = test system: SF-295 CNS
OVCAR-4 ovarian = test system: OVCAR-4 ovarian
NCI/ADR-RES ovarian = test system: NCI/ADR-RES ovarian
HOP-92 NSCLC = test system: HOP-92 NSCLC
CCRF-CEM leukemia = test system: CCRF-CEM leukemia
786-0 renal = test system: 786-0 renal
OVCAR-5 ovarian = test system: OVCAR-5 ovarian
SNB-75 CNS = test system: SNB-75 CNS
HOP-62 NSCLC = test system: HOP-62 NSCLC
OVCAR-3 ovarian = test system: OVCAR-3 ovarian
SR leukemia = test system: SR leukemia
NCI-H460 lung = test system: NCI-H460 lung
LOX IMVI melanoma = test system: LOX IMVI melanoma
SW-620 colon = test system: SW-620 colon
EKVX NSCLC = test system: EKVX NSCLC
RPMI-8226 leukemia = test system: RPMI-8226 leukemia
SF-268 CNS = test system: SF-268 CNS
SF-539 CNS = test system: SF-539 CNS
SK-MEL-5 melanoma = test system: SK-MEL-5 melanoma
T-47D breast = test system: T-47D breast
HT29 colon = test system: HT29 colon
NCI-H226 lung = test system: NCI-H226 lung
MALME-3M melanoma = test system: MALME-3M melanoma
A498 renal = test system: A498 renal
MOLT-4 leukemia = test system: MOLT-4 leukemia
MCF7 breast = test system: MCF7 breast
NCI-H23 lung = test system: NCI-H23 lung
HCT-116 colon = test system: HCT-116 colon
HCT-15 colon = test system: HCT-15 colon
SK-MEL-2 melanoma = test system: SK-MEL-2 melanoma
M14 melanoma = test system: M14 melanoma
A549 NSCLC = test system: A549 NSCLC
UACC-257 melanoma = test system: UACC-257 melanoma
IGROV1 ovarian = test system: IGROV1 ovarian
KM12 colon = test system: KM12 colon
SK-MEL-28 melanoma = test system: SK-MEL-28 melanoma
HCC-2998 colon = test system: HCC-2998 colon
MDA-MB-231 breast = test system: MDA-MB-231 breast
SN12C renal = test system: SN12C renal
PC-3 prostate = test system: PC-3 prostate
RXF 393 renal = test system: RXF 393 renal
OVCAR-8 ovarian = test system: OVCAR-8 ovarian
DU-145 prostate = test system: DU-145 prostate
UO-31 renal = test system: UO-31 renal
HS 578T breast = test system: HS 578T breast
CAKI-1 renal = test system: CAKI-1 renal
HL-60(TB) leukemia = test system: HL-60(TB) leukemia
K-562 leukemia = test system: K-562 leukemia
NCI-H522 lung = test system: NCI-H522 lung
SNB-19 CNS = test system: SNB-19 CNS
MDA-MB-435 = test system: MDA-MB-435
U251 CNS = test system: U251 CNS
TK-10 renal = test system: TK-10 renal

COC(=O)c1cc2oc(/C=C3/SC(=S)N(NC(C)=O)C3=O)cc2n1C
GI50 (COLO 205 colon): 22.4 µM | TGI (COLO 205 colon): > 100 µM | GI50 (UACC-62 melanoma): 14.7 µM | TGI (UACC-62 melanoma): 35 µM | GI50 (BT-549 breast): 6.13 µM | TGI (BT-549 breast): 22.7 µM | GI50 (ACHN renal): 15.8 µM | TGI (ACHN renal): 43.5 µM | GI50 (SF-295 CNS): 18.2 µM | TGI (SF-295 CNS): 65.5 µM | GI50 (OVCAR-4 ovarian): 37.7 µM | TGI (OVCAR-4 ovarian): > 100 µM | GI50 (NCI/ADR-RES ovarian): 15.3 µM | TGI (NCI/ADR-RES ovarian): 51.4 µM | GI50 (HOP-92 NSCLC): 19.6 µM | TGI (HOP-92 NSCLC): 44.5 µM | GI50 (CCRF-CEM leukemia): 11.8 µM | TGI (CCRF-CEM leukemia): 76 µM | GI50 (786-0 renal): 20.1 µM | TGI (786-0 renal): 42.6 µM | GI50 (OVCAR-5 ovarian): 21.7 µM | TGI (OVCAR-5 ovarian): 54.9 µM | GI50 (SNB-75 CNS): 34.7 µM | TGI (SNB-75 CNS): > 100 µM | GI50 (HOP-62 NSCLC): 21.7 µM | TGI (HOP-62 NSCLC): 47.3 µM | GI50 (OVCAR-3 ovarian): 19.2 µM | TGI (OVCAR-3 ovarian): 55 µM | GI50 (SR leukemia): 3.32 µM | TGI (SR leukemia): > 100 µM | GI50 (NCI-H460 lung): 8.26 µM | TGI (NCI-H460 lung): > 100 µM | GI50 (LOX IMVI melanoma): 11.1 µM | TGI (LOX IMVI melanoma): 27.9 µM | GI50 (SW-620 colon): 7.51 µM | TGI (SW-620 colon): 25.5 µM | GI50 (EKVX NSCLC): 11.3 µM | TGI (EKVX NSCLC): 40.5 µM | GI50 (RPMI-8226 leukemia): 24 µM | TGI (RPMI-8226 leukemia): > 100 µM | GI50 (SF-268 CNS): 28.4 µM | TGI (SF-268 CNS): > 100 µM | GI50 (SF-539 CNS): 12.9 µM | TGI (SF-539 CNS): 29.1 µM | GI50 (SK-MEL-5 melanoma): 12.6 µM | TGI (SK-MEL-5 melanoma): 26.2 µM | GI50 (T-47D breast): 29.6 µM | TGI (T-47D breast): 90.7 µM | GI50 (HT29 colon): 27.2 µM | TGI (HT29 colon): > 100 µM | GI50 (NCI-H226 lung): 21.5 µM | TGI (NCI-H226 lung): 51.7 µM | GI50 (MALME-3M melanoma): 10.8 µM | TGI (MALME-3M melanoma): 52 µM | GI50 (A498 renal): 10.8 µM | TGI (A498 renal): 28.1 µM | GI50 (MOLT-4 leukemia): 11.3 µM | TGI (MOLT-4 leukemia): 62.1 µM | GI50 (MCF7 breast): 11.6 µM | TGI (MCF7 breast): > 100 µM | GI50 (NCI-H23 lung): 16.6 µM | TGI (NCI-H23 lung): 50.1 µM | GI50 (HCT-116 colon): 12.1 µM | TGI (HCT-116 colon): 31.1 µM | GI50 (HCT-15 colon): 14.9 µM | TGI (HCT-15 colon): 58.5 µM | GI50 (SK-MEL-2 melanoma): 23.9 µM | TGI (SK-MEL-2 melanoma): > 100 µM | GI50 (M14 melanoma): 10.8 µM | TGI (M14 melanoma): 31.8 µM | GI50 (A549 NSCLC): 28.3 µM | TGI (A549 NSCLC): > 100 µM | GI50 (UACC-257 melanoma): 30.1 µM | TGI (UACC-257 melanoma): > 100 µM | GI50 (IGROV1 ovarian): 23.3 µM | TGI (IGROV1 ovarian): > 100 µM | GI50 (KM12 colon): 26.4 µM | TGI (KM12 colon): > 100 µM | GI50 (SK-MEL-28 melanoma): 40.3 µM | TGI (SK-MEL-28 melanoma): > 100 µM | GI50 (HCC-2998 colon): 12 µM | TGI (HCC-2998 colon): 29.5 µM | GI50 (MDA-MB-231 breast): 21.5 µM | TGI (MDA-MB-231 breast): 53.2 µM | GI50 (SN12C renal): 21.9 µM | TGI (SN12C renal): 60.5 µM | GI50 (PC-3 prostate): 25.6 µM | TGI (PC-3 prostate): 68.4 µM | GI50 (RXF 393 renal): 36.5 µM | TGI (RXF 393 renal): 87.7 µM | GI50 (OVCAR-8 ovarian): 23.1 µM | TGI (OVCAR-8 ovarian): 99.1 µM | GI50 (DU-145 prostate): 8.76 µM | TGI (DU-145 prostate): 25.4 µM | GI50 (UO-31 renal): 14.5 µM | TGI (UO-31 renal): 92.7 µM | GI50 (HS 578T breast): 15.2 µM | TGI (HS 578T breast): 59.2 µM | GI50 (CAKI-1 renal): 10 µM | TGI (CAKI-1 renal): 36.9 µM | GI50 (HL-60(TB) leukemia): 38.3 µM | TGI (HL-60(TB) leukemia): > 100 µM | GI50 (K-562 leukemia): 24.7 µM | TGI (K-562 leukemia): > 100 µM | GI50 (NCI-H522 lung): 16.4 µM | TGI (NCI-H522 lung): 55.4 µM | GI50 (SNB-19 CNS): 31.6 µM | TGI (SNB-19 CNS): > 100 µM | GI50 (MDA-MB-435): 17.6 µM | TGI (MDA-MB-435): > 100 µM | GI50 (U251 CNS): 16 µM | TGI (U251 CNS): 45 µM | GI50 (TK-10 renal): 26 µM | TGI (TK-10 renal): 97.4 µM
